Measurements: patent US8956622B2, “Peptidic antagonists of class III semaphorins/neuropilins complexes” (INSERM—Institut National de la Sante et de la Recherche …, priority 2005, dated 2015)

Target: T1, NRP1 (Homo sapiens, UniProt O14786)
T1 construct: mutations were introduced into the TM domain of a full length NRP1; expressed in transfected cells; host or cells: COS-1 cells, pBK-CMV plasmid (cDNA provided by Pr. Puschel)
Experiment: AP-Sema3A binding to NRP1-expressing COS cells (optical density per cell)
Details: peptide 10^−9 M, 1 hour pre-incubation
Protocol: NRP1 expressing COS cells were incubated with AP-Sema3A, a fusion protein of Sema3A and the secreted alkaline phosphatase (BAGNARD et al., 1998).
Wild-type COS cells or NRP1-expressing COS cells (COS-NRP1) were cultured on 12-wells plates on poly-L-lysine-coated glass coverslips (0.005 mg/ml). After one-hour incubation with pTM-NRP1 or pTM-NRP1^mut (10^−9M) in serum-free medium at 37° C., the culture medium was replaced by conditioned medium containing alkaline phosphatase-coupled Sema3A (AP-Sema3A; BAGNARD et al., 1998) obtained from AP-Sema3A stably expressing HEK cells for 90 mn. Conditioned medium without semaphorin served as a control (obtained from non-transfected HEK). Cells were washed three times with PBS and fixed in 4% formaldehyde before transfer in a new dish. After three washes in PBS, the plate was warmed for 50 mn at 65° C. Cells were subsequently incubated with 1 ml of alkaline phosphatase substrate (NBT/BCIP, SIGMA) in the dark. After 45 mn, substrate was removed and glass coverslips were rinsed. Pictures were acquired with a conventional microscope and analyzed with AxioVision LE Zeiss software. For each condition tested, about 60 cells were analyzed to determine binding levels as a function of optical density. Statistical analysis was performed by using a Student's t test.

T1 sequence (O14786 22-923): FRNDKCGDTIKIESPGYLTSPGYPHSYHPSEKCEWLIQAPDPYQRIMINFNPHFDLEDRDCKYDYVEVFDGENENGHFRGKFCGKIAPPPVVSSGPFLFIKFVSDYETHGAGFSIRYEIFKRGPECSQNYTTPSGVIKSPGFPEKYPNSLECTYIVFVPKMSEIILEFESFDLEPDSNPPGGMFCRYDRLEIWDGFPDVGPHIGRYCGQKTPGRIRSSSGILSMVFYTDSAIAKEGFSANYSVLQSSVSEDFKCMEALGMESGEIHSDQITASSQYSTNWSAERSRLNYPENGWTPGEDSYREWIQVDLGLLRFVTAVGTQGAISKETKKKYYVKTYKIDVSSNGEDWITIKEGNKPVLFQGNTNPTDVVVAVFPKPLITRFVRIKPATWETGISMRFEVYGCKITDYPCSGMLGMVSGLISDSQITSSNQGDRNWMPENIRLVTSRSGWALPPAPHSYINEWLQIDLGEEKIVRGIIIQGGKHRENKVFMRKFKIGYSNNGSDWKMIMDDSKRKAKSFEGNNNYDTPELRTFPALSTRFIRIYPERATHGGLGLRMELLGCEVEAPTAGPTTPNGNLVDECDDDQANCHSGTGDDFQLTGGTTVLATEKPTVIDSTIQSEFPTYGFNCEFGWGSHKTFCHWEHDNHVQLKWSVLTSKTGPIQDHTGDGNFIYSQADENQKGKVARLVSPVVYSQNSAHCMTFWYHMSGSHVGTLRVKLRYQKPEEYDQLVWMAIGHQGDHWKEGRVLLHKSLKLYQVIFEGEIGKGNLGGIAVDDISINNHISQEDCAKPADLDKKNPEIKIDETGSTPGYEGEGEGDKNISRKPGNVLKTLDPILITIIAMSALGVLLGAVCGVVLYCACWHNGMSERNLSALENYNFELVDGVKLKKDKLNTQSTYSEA

binding of AP-Sema3A to NRP1-expressing COS cells: significantly reduced
Sequence: ILITIIAMSALGVLLGAVCGVVL [pTM-NRP1]
